Key:
[1] = DSC
[2] = Molar enthalpy of transition or fusion; details: DSC
[3] = molar heat capacity at constant pressure; details: 101.33 kPa

C[n+]1ccn(Cc2ccccc2)c1.O=S(=O)([O-])C(F)(F)C(F)F
Crystal
Details	Molar enthalpy of transition or fusion [kcal/mol]	Triple point temperature [K]
[1]	–	315.4
[2]	5.64	–

Details	Glass transition temperature [°C]
[1]	-44.0

[3]
Details	molar heat capacity at constant pressure [J/K/mol]
278.51 K, Crystal, Small sample (50 mg) DSC	393.57
283.62 K, Crystal, Small sample (50 mg) DSC	402.07
288.72 K, Crystal, Small sample (50 mg) DSC	411.24
293.83 K, Crystal, Small sample (50 mg) DSC	423.44
298.15 K, Crystal, Drop calorimetry	434.75
298.15 K, Metastable liquid, Drop calorimetry	509.51
334.67 K, Liquid, Small sample (50 mg) DSC	527.08
339.77 K, Liquid, Small sample (50 mg) DSC	530.26
344.88 K, Liquid, Small sample (50 mg) DSC	533.48
349.98 K, Liquid, Small sample (50 mg) DSC	537.12
355.09 K, Liquid, Small sample (50 mg) DSC	540.53

Cn1cc[n+](Cc2ccccc2)c1.F[P-](F)(F)(F)(F)F [1-benzyl-3-methylimidazolium hexafluorophosphate]
Crystal
Details	Molar enthalpy of transition or fusion [kcal/mol]	Triple point temperature [K]
[1]	–	399.7
[2]	5.95	–

Details	Glass transition temperature [°C]
[1]	-28.3

[3], Crystal
Details	molar heat capacity at constant pressure [J/K/mol]
258.09 K, Small sample (50 mg) DSC	321.38
263.2 K, Small sample (50 mg) DSC	325.69
268.3 K, Small sample (50 mg) DSC	330.39
273.41 K, Small sample (50 mg) DSC	335.64
278.51 K, Small sample (50 mg) DSC	339.82
283.62 K, Small sample (50 mg) DSC	344.42
288.72 K, Small sample (50 mg) DSC	348.47
293.83 K, Small sample (50 mg) DSC	352.84
298.15 K, Drop calorimetry	360.42
298.93 K, Small sample (50 mg) DSC	357.16
304.04 K, Small sample (50 mg) DSC	361.74
309.14 K, Small sample (50 mg) DSC	366.16
314.25 K, Small sample (50 mg) DSC	371.17
319.35 K, Small sample (50 mg) DSC	376.2
324.46 K, Small sample (50 mg) DSC	380.3
329.56 K, Small sample (50 mg) DSC	384.8
334.67 K, Small sample (50 mg) DSC	389.73
339.77 K, Small sample (50 mg) DSC	394.64
344.88 K, Small sample (50 mg) DSC	399.86
349.98 K, Small sample (50 mg) DSC	404.92
355.09 K, Small sample (50 mg) DSC	410.63

C[n+]1ccn(Cc2ccccc2)c1.O=S(=O)([N-]S(=O)(=O)C(F)(F)F)C(F)(F)F
Details	Glass transition temperature [°C]
[1]	-56.4

[3], Liquid
Details	molar heat capacity at constant pressure [J/K/mol]
258.09 K, Small sample (50 mg) DSC	588.22
263.2 K, Small sample (50 mg) DSC	589.8
268.3 K, Small sample (50 mg) DSC	592.39
273.38 K, Small sample (50 mg) DSC	596.83
278.51 K, Small sample (50 mg) DSC	597.13
283.61 K, Small sample (50 mg) DSC	599.43
288.72 K, Small sample (50 mg) DSC	601.59
293.82 K, Small sample (50 mg) DSC	603.91
298.15 K, Drop calorimetry	598.96
298.93 K, Small sample (50 mg) DSC	606.63
304.03 K, Small sample (50 mg) DSC	609.41
309.14 K, Small sample (50 mg) DSC	611.94
314.24 K, Small sample (50 mg) DSC	615.52
319.35 K, Small sample (50 mg) DSC	618.97
324.45 K, Small sample (50 mg) DSC	621.42
329.41 K, Small sample (50 mg) DSC	624.07
334.67 K, Small sample (50 mg) DSC	626.99
339.78 K, Small sample (50 mg) DSC	630.16
344.88 K, Small sample (50 mg) DSC	633.62
349.99 K, Small sample (50 mg) DSC	636.94
355.08 K, Small sample (50 mg) DSC	640.33

C[n+]1ccn(Cc2ccccc2)c1.[Cl-] [1-benzyl-3-methyl-1H-imidazolium chloride]
Details	Glass transition temperature [°C]
[1]	-8.4

molar heat capacity at constant pressure [J/K/mol], [3]
Details	Crystal	Metastable liquid
261.06 K, Small sample (50 mg) DSC	238.97	–
265 K, Small sample (50 mg) DSC	243.67	–
270 K, Small sample (50 mg) DSC	252.99	–
275 K, Small sample (50 mg) DSC	261.15	–
277.11 K, Small sample (50 mg) DSC	–	329.64
280 K, Small sample (50 mg) DSC	269.17	330.72
285 K, Small sample (50 mg) DSC	278.83	332.88
289.14 K, Small sample (50 mg) DSC	288.47	–
290 K, Small sample (50 mg) DSC	–	335.29
295 K, Small sample (50 mg) DSC	–	338
298.15 K, Drop calorimetry	–	338.43
300 K, Small sample (50 mg) DSC	–	340.37
305 K, Small sample (50 mg) DSC	–	342.49
310 K, Small sample (50 mg) DSC	–	344.71
315 K, Small sample (50 mg) DSC	–	346.85
320 K, Small sample (50 mg) DSC	–	348.98
325 K, Small sample (50 mg) DSC	–	351.32
330 K, Small sample (50 mg) DSC	–	353.53
335 K, Small sample (50 mg) DSC	–	355.73
340 K, Small sample (50 mg) DSC	–	358
345 K, Small sample (50 mg) DSC	–	360.85
350 K, Small sample (50 mg) DSC	–	363.87
355 K, Small sample (50 mg) DSC	–	367.01

C[n+]1ccn(Cc2ccccc2)c1.F[B-](F)(F)F [1-benzyl-3-methylimidazolium tetrafluoroborate]
Details	Molar enthalpy of transition or fusion, [2] [kcal/mol]	Triple point temperature, [1] [K]
Crystal	4.57	346.2
Metastable crystal	3.97	336.5

Details	Glass transition temperature [°C]
[1]	-37.8

[3]
Details	molar heat capacity at constant pressure [J/K/mol]
261.7 K, Crystal, Small sample (50 mg) DSC	292.62
265 K, Crystal, Small sample (50 mg) DSC	295.4
270 K, Crystal, Small sample (50 mg) DSC	299.6
275 K, Crystal, Small sample (50 mg) DSC	304.74
275.65 K, Metastable crystal, Small sample (50 mg) DSC	283.68
280 K, Crystal, Small sample (50 mg) DSC	309.29
280 K, Metastable crystal, Small sample (50 mg) DSC	287.35
285 K, Crystal, Small sample (50 mg) DSC	313.98
285 K, Metastable crystal, Small sample (50 mg) DSC	292.48
290 K, Crystal, Small sample (50 mg) DSC	319.04
290 K, Metastable crystal, Small sample (50 mg) DSC	298.09
295 K, Crystal, Small sample (50 mg) DSC	324.16
295 K, Metastable crystal, Small sample (50 mg) DSC	303.57
298.15 K, Crystal, Drop calorimetry	325.85
298.15 K, Metastable crystal, Drop calorimetry	304.61
300 K, Crystal, Small sample (50 mg) DSC	329.01
300 K, Metastable crystal, Small sample (50 mg) DSC	307.82
305 K, Crystal, Small sample (50 mg) DSC	333.82
305 K, Metastable crystal, Small sample (50 mg) DSC	312.26
310 K, Crystal, Small sample (50 mg) DSC	338.5
310 K, Metastable crystal, Small sample (50 mg) DSC	316.56
315 K, Crystal, Small sample (50 mg) DSC	343.23
315 K, Metastable crystal, Small sample (50 mg) DSC	320.92
318.98 K, Metastable crystal, Small sample (50 mg) DSC	324.78
320 K, Crystal, Small sample (50 mg) DSC	348.35
325 K, Crystal, Small sample (50 mg) DSC	353.67
328.42 K, Crystal, Small sample (50 mg) DSC	356.83
345.5 K, Small sample (50 mg) DSC, Liquid	417.35
350 K, Small sample (50 mg) DSC, Liquid	420.2
355 K, Small sample (50 mg) DSC, Liquid	423.44
357.55 K, Small sample (50 mg) DSC, Liquid	424.91

Source: the NIST ThermoML archive (doi:10.1016/j.jct.2016.04.009)
